Patent publication US20120238488A1, “COMPOUNDS AND METHODS FOR TREATING NEOPLASIA” (priority 2009, published 2012)

Assays:
[1] = tested on: HCT15 (Colon); assay: SRB assay, HCT15; type: cell-based, human
Method: (§1) SRB assays were performed according to standard National Cancer Institute Guidelines. Briefly, human tumor cells from different cancer panels were seeded into 96 well plates in 100 μL (plating densities ranging from 5-40,000 cells/well depending on the doubling time of individual cell lines) in serum-containing media for twenty-four hours prior to the addition of the compounds to be assayed. After 24 hours, one plate of each cell line was fixed in situ with trichloroacetic acid (TCA). The fixed slides were used to determine the cell population for each cell line at the time of drug addition (Tz). Each compound to be tested was solubilized in DMSO and the desired concentration was then added to the medium and diluted serially 1:10 to provide a total of five or ten drug concentrations plus control (in a final volume of 200 μL). The starting dose before any dilution was 100 uM for all compounds.
(§2) Following drug addition, each culture was incubated for forty-eight hours. The assay was terminated with the addition of cold TCA. The supernatant was discarded, and the plates were washed with tap water and air dried. Sulforhodamine B (SRB) solution was then added to each well. After staining, the bound stain was solubilized and the absorbance was read on an automated plate reader at a wavelength of 515 nm.
(§3) Using the absorbance measurements [time zero, (Tz), control growth, (C), and test growth in the presence of drug at the ten concentration levels (Ti)], the percentage growth was calculated at each of the drug concentrations levels. Percentage growth inhibition was calculated as:
(§4) [(Ti−Tz)/(C−Tz)]×100 for concentrations for which Ti>/=Tz
(§5) [(Ti−Tz)/Tz]×100 for concentrations for which Ti<Tz.
(§6) Three dose response parameters were calculated for each experimental agent. Growth inhibition of 50% (GI50) was calculated from [(Ti−Tz)/(C−Tz)]×100=50, which was the drug concentration resulting in a 50% reduction in the net protein increase (as measured by SRB staining) in control cells during the drug. The drug concentration resulting in total growth inhibition (TGI) was calculated from Ti=Tz. The LC50 (concentration of drug resulting in a 50% reduction in the measured protein at the end of the drug treatment as compared to that at the beginning) indicating a net loss of cells following treatment was calculated from [(Ti−Tz)/Tz]×100=−50.
(§7) Values were calculated for each of these three parameters when the level of activity was reached; however, if the effect was not reached or was exceeded, the value for that parameter was expressed as greater or less than the maximum or minimum concentration tested.
(§8) Table 4 summarizes results characterizing the effects of compound Nos. 120, 12, 61, 1, and 56 on GI50, which measures the cell growth inhibitory power of the compound, TGI, which measures cytostatic effect (TGI) and LC50, which signifies cytotoxic effect. Each of these parameters in Table 4 was calculated in a sulforhodamine B (SRB) assay, which provides a colorimetric measure of a compound's anti-cancer activity. SRB assays were performed with compounds of the invention in 22 different cell lines (shaded in light gray in Table 4), which represent nine different tumor panels (lung, melanoma, ovary, prostate, CNS, breast, pancreas colon and renal). Ouabain and digoxin were used as controls. Paclitaxel was added as a non-Na^+K^+-ATPase inhibitor control.

[2] = tested on: IGROV1 (Ovary); assay: SRB assay, IGROV1; type: cell-based, human
Method: as §1, §2, §3, §4, §5, §6, §7, §8

[3] = tested on: 22 different cell lines, nine tumor panels (lung, melanoma, ovary, prostate, CNS, breast, pancreas colon and renal); assay: SRB assay, all tumor cell line panels (summary statements); type: cell-based, human; conditions: for viability and/or cell proliferation of neoplastic cell lines: lung, breast, CNS, colon, prostate, ovary, pancreas, kidney and melanoma lines, including a multidrug resistant cell line
Method: as §1, §2, §3
Three dose response parameters were calculated for each experimental agent. […] The drug concentration resulting in total growth inhibition (TGI) was calculated from Ti=Tz. The LC50 (concentration of drug resulting in a 50% reduction in the measured protein at the end of the drug treatment as compared to that at the beginning) indicating a net loss of cells following treatment was calculated from [(Ti−Tz)/Tz]×100=−50.
Each of these parameters in Table 4 was calculated in a sulforhodamine B (SRB) assay, which provides a colorimetric measure of a compound's anti-cancer activity. SRB assays were performed with compounds of the invention in 22 different cell lines (shaded in light gray in Table 4), which represent nine different tumor panels (lung, melanoma, ovary, prostate, CNS, breast, pancreas colon and renal). […] Paclitaxel was added as a non-Na^+K^+-ATPase inhibitor control.

[4] = tested on: H160 (Lung); assay: SRB assay, H160; type: cell-based, human; conditions: 48 h
Method: as §1, §2, §3, §4, §5, §6, §7, §8

[5] = tested on: HCT116 colon cancer, PC3 and DU145 prostate cancer cell lines; assay: MTT proliferation/viability assay; type: cell-based; conditions: 72 h, FIGS. 1A-1D, HCT116 only compound 120
Method: All assays were performed in triplicate.
The effect of the different compounds on the proliferation and viability of cancer cell lines was tested. Compound 120 was tested in one colon cancer cell line (HCT116), and compound Nos. 120, 12, 61, 1, and 56 were tested in two prostate cancer cell lines (PC3 and DU145). […] This colorimetric assay uses the reduction of MTT to formazan as a measure of metabolic activity. Untreated cells cultured in the presence of serum were used as a negative control.

[6] = tested on: LOXIMVI (Melanoma); assay: SRB assay, LOXIMVI; type: cell-based, human; conditions: 48 h
Method: as §1, §2, §3, §4, §5, §6, §7, §8

[7] = tested on: U251 (CNS); assay: SRB assay, U251; type: cell-based, human
Method: as §1, §2, §3, §4, §5, §6, §7, §8

[8] = tested on: SU8686 (Pancreas); assay: SRB assay, SU8686; type: cell-based, human
Method: as §1, §2, §3, §4, §5, §6, §7, §8

[9] = tested on: MCF7 (Breast); assay: SRB assay, MCF7; type: cell-based, human
Method: as §1, §2, §3, §4, §5, §6, §7, §8

[10] = tested on: A549 xenografts (lung carcinoma); assay: A549 xenograft anti-tumor activity; type: in vivo, Nod/Scid mice
Method: All administrations were intraperitoneal.
At day 20 post inoculation (dpi), mean tumor volume was measured at 117.6 mm^3.
Compound 56 was administered intraperitoneallly using a [(QD×5;2) ×5] scheme. Paclitaxel, used as a positive control, was injected twice weekly for 5 cycles (Tuesday & Friday).

## C[C@]12CCC(=NOCCN)C=C1CCC1C2CC[C@@]2(C)C1CC[C@@H]2O (stereo partly drawn) [Compound 120, (1S,9aR,11aS)-17-hydroxy-10,13-dimethyl-6,7,8,9,10,11,12,13,14,15,16,17-dodecahydro-1H-cyclopenta[a]phenanthren-3(2H)-one O-2-aminoethyl oxime]
[1]; HCT15, SRB, 48 h
  TGI: 23.51 µM
[1]; Homo sapiens, HCT-15, 48 h, read-out: LC50
  CC50: 76.3 µM
[1]; Homo sapiens, HCT-15, HCT15, SRB, 48 h
  GI50: 6.39 µM
[2]; Homo sapiens, IGROV-1, 48 h, read-out: LC50
  CC50: 67.4 µM
[2]; Homo sapiens, IGROV-1, IGROV1, SRB, 48 h
  GI50: 5.49 µM
[2]; IGROV1, SRB, 48 h
  TGI: 10.74 µM
[3]; SRB, all cell line panels
  GI50 action in all cell line panels tested (in words): mostly single-digit micromolar GI50 action
[3]
  viability and/or cell proliferation of neoplastic cell lines: reduced the viability and/or cell proliferation
[4]; H160, SRB
  TGI: 11.68 µM
[4]; Homo sapiens, read-out: LC50
  CC50: 21.7 µM
[4]; Homo sapiens, H160, SRB
  GI50: 4.13 µM
[5]
  inhibition of cell proliferation and viability (MTT): strong inhibition of cell proliferation and viability
[6]; Homo sapiens, LOX IMVI, read-out: LC50
  CC50: 97.2 µM
[6]; Homo sapiens, LOX IMVI, LOXIMVI, SRB
  GI50: 7.14 µM
[6]; LOXIMVI, SRB
  TGI: 25.19 µM
[7]; Homo sapiens, U-251, 48 h, read-out: LC50
  CC50: 68.5 µM
[7]; Homo sapiens, U-251, U251, SRB, 48 h, read-out: GI50
  GI50: 6.77 µM
[7]; U251, SRB, 48 h
  TGI: 27.92 µM
[8]; Homo sapiens, SU.86.86, 48 h, read-out: LC50
  CC50: 23.1 µM
[8]; Homo sapiens, SU.86.86, SU8686, SRB, 48 h
  GI50: 7.45 µM
[8]; SU8686, SRB, 48 h
  TGI: 15.27 µM
[9]; Homo sapiens, MCF7, 48 h, read-out: LC50
  CC50: 24.1 µM
[9]; Homo sapiens, MCF7, SRB, 48 h
  GI50: 7.04 µM
[9]; MCF7, SRB, 48 h
  TGI: 14.85 µM

## C[C@]12CCC(=NOC3CCNC3)CC1CCC1C2CC[C@]2(C)C(=O)CCC12 (stereo partly drawn) [Compound 56, (10S,13S)-10,13-dimethyl-3-(pyrrolidin-3-yloxyimino)tetradecahydro-1H-cyclopenta[a]phenanthren-17(2H)-one]
[10]; A549 xenograft mice, 20 mgk intraperitoneal
  weight changes: no significant weight changes
[10]; A549 xenografts, day 24, compound 56 20 mgk, paclitaxel 18 mgk, intraperitoneal
  DT/DC: −10.47%
[10]; A549 xenografts, compound 56 20 mgk, paclitaxel 18 mgk
  post mortem analysis on excised tumors: tumor growth inhibition: statistical significant tumor growth inhibition
[10]; mouse, in vivo
  anti-tumor activity in A549 xenografts (FIG. 2B): has anti-tumor activities
[3]; Homo sapiens, SRB, all cell line panels, read-out: GI50 activity for all cell line panels tested
  GI50: < 0.1 µM
[3]; SRB, all cell line panels
  GI50 action in all cell line panels tested (in words): nanomolar GI50 action
[3]
  viability and/or cell proliferation of neoplastic cell lines: reduced the viability and/or cell proliferation
[5]
  inhibition of cell proliferation and viability (MTT): strong inhibition of cell proliferation and viability
